Test results published in patent US20160137639A1, “TRIAZOLE-ISOXAZOLE COMPOUND AND MEDICAL USE THEREOF” (JAPAN TOBACCO INC., priority 2012, published 2016).

Assays:
mouse RORγ = target: T1, mouse RORγ (Mus musculus, UniProt P51450); assay: Luciferase reporter gene assay of inhibitory effect against RORγ transcriptional activity (GAL4-mRORγ plasmid in CHO cells); type: cell-based; conditions: read-out: LUC EC50 mRORg
T1 construct: mouse, NM_011281.2 and from Ile251 to Lys516; expressed in transfected cells; host or cells: CHO cells (transient co-transfection with pG5-Luc reporter)
T1 sequence (P51450 251-516): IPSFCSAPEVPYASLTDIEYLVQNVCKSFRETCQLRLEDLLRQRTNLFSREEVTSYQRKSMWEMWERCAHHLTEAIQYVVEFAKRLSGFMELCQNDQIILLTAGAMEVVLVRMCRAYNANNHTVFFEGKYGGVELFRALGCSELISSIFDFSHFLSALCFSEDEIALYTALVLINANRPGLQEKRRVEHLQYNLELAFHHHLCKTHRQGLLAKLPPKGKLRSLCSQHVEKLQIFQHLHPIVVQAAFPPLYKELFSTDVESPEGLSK
In short: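 CHO cells transiently co-transfected with GAL4-mouse RORγ LBD (Ile251–Lys516) and GAL4-dependent luciferase reporter; eight compound concentrations, 0.1% DMSO, 2 days at 37 °C. Luminescence as %-of-vehicle control; EC50 by curve fit, cytotoxic concentrations excluded.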

human RORγ = target: T2, human RORγ (Homo sapiens, UniProt P51449); assay: Luciferase reporter gene assay of inhibitory effect against RORγ transcriptional activity (GAL4-hRORγ plasmid in CHO cells); type: cell-based; conditions: read-out: LUC EC50 hRORg
T2 construct: human, NM_005060.3 and from Ser253 to Lys518; expressed in transfected cells; host or cells: CHO cells (transient co-transfection with pG5-Luc reporter)
T2 sequence (P51449 253-518): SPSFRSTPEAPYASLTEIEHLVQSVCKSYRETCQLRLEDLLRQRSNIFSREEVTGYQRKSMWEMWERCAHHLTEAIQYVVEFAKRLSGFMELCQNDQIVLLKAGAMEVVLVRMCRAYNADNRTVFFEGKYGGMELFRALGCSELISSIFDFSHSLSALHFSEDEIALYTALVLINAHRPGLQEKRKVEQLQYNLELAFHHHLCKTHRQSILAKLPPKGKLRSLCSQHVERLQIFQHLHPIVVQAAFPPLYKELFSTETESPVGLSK

## CC(=O)N1C[C@H](C(=O)Nc2ccc(Cl)cc2C)[C@@H](c2nnc([C@H]3C[C@@H](CC(C)C)C3)n2C2CC2)C1 [Example F-603]
Mouse RORγ
  EC50: < 3 µM
Human RORγ
  EC50: < 3 µM

## CC(=O)N1C[C@H](C(=O)Nc2ccc(Cl)cc2F)[C@@H](c2nnc([C@H]3C[C@@H](CC(C)C)C3)n2C2CC2)C1 [Example F-604]
Mouse RORγ
  EC50: < 3 µM
Human RORγ
  EC50: < 3 µM

## Cc1cc(Cl)ccc1NC(=O)C[C@H](CC(C)C)c1nnc(-c2cc(CC(C)C)on2)n1C1CC1 [Example F-606]
Mouse RORγ
  EC50: < 3 µM
Human RORγ
  EC50: < 3 µM

## Cc1cc(F)ccc1NC(=O)C[C@H](CC(C)C)c1nnc(-c2cc(CC(C)C)on2)n1C1CC1 [Example F-607]
Mouse RORγ
  EC50: < 3 µM
Human RORγ
  EC50: < 3 µM

## Cc1cc(Cl)ccc1NC(=O)C[C@H](CCO)c1nnc(-c2cc(CC(C)(C)C)on2)n1C1CC1 [Example F-608]
Mouse RORγ
  EC50: < 3 µM
Human RORγ
  EC50: < 3 µM

## Cc1ccc(NC(=O)C[C@H](OCC(F)(F)F)c2nnc([C@H]3C[C@@H](CC(C)C)C3)n2C2CC2)c(C)c1 [Example F-609]
Mouse RORγ
  EC50: < 3 µM
Human RORγ
  EC50: < 3 µM

## CC(=O)N1C[C@H](C(=O)Nc2ccc(Cl)cc2C)[C@@H](c2nnc(C3CC4(CCC(F)(F)CC4)C3)n2C2CC2)C1 [Example F-610]
Mouse RORγ
  EC50: < 3 µM
Human RORγ
  EC50: < 3 µM

## CC(=O)N1C[C@H](C(=O)Nc2ccc(Cl)cc2C)[C@@H](c2nnc([C@H]3C[C@@H](CC(C)(C)F)C3)n2C2CC2)C1 [Example F-611]
Mouse RORγ
  EC50: < 3 µM
Human RORγ
  EC50: < 3 µM

## Cc1ccc(NC(=O)C[C@H](CCO)c2nnc(-c3cc(CC(C)(C)C)on3)n2C2CC2)c(C)c1 [Example F-612]
Mouse RORγ
  EC50: < 3 µM
Human RORγ
  EC50: < 3 µM

## CC(=O)N1C[C@H](C(=O)Nc2ccc(Cl)cc2C)[C@@H](c2nnc(-c3cc(CC(C)C)on3)n2C2CC2)C1 [Example F-613]
Mouse RORγ
  EC50: < 3 µM
Human RORγ
  EC50: < 3 µM

## Cc1cc(Cl)ccc1NC(=O)C[C@H](OC(C)C)c1nnc(-c2cc(CC(C)C)on2)n1C1CC1 [Example F-614]
Mouse RORγ
  EC50: < 3 µM
Human RORγ
  EC50: < 3 µM

## Cc1ccc(NC(=O)C[C@H](CCO)c2nnc(-c3cc(CCC(C)C)on3)n2C2CC2)c(C)c1 [Example F-615]
Mouse RORγ
  EC50: < 3 µM
Human RORγ
  EC50: < 3 µM

## Cc1cc(Cl)ccc1NC(=O)C[C@H](CCO)c1nnc(-c2cc(CCC(C)C)on2)n1C1CC1 [Example F-616]
Mouse RORγ
  EC50: < 3 µM
Human RORγ
  EC50: < 3 µM

## Cc1ccc(NC(=O)[C@H]2CN(C)C[C@@H]2c2nnc(-c3cc(CC(C)C)on3)n2C2CC2)c(C)c1 [Example F-618]
Mouse RORγ
  EC50: < 3 µM
Human RORγ
  EC50: < 3 µM

## Cc1ccc(NC(=O)C[C@H](CCO)c2nnc(C3CC4(CCC(F)(F)CC4)C3)n2C2CC2)c(C)c1 [Example F-619]
Mouse RORγ
  EC50: < 3 µM
Human RORγ
  EC50: < 3 µM

## CC(=O)N1C[C@H](C(=O)Nc2ccc(C)cc2C)[C@@H](c2nnc(C3CC4(CCC(F)(F)CC4)C3)n2C2CC2)C1 [Example F-620]
Mouse RORγ
  EC50: < 3 µM
Human RORγ
  EC50: < 3 µM

## Cc1c(F)ccc(NC(=O)C[C@H](CCO)c2nnc([C@H]3C[C@@H](CC(C)C)C3)n2C2CC2)c1C [Example F-623]
Mouse RORγ
  EC50: < 3 µM
Human RORγ
  EC50: < 3 µM

## Cc1cc(Cl)ccc1NC(=O)C[C@H](CCO)c1nnc(C2CC3(CCC(F)(F)CC3)C2)n1C1CC1 [Example F-624]
Mouse RORγ
  EC50: < 3 µM
Human RORγ
  EC50: < 3 µM

## Cc1ccc(NC(=O)C[C@H](CC(C)C)c2nnc(-c3cc(CC(C)(C)C)on3)n2C2CC2)c(C)c1 [Example F-625]
Mouse RORγ
  EC50: < 3 µM
Human RORγ
  EC50: < 3 µM

## Cc1cc(Cl)ccc1NC(=O)C[C@H](CC(C)C)c1nnc(-c2cc(CC(C)(C)C)on2)n1C1CC1 [Example F-626]
Mouse RORγ
  EC50: < 3 µM
Human RORγ
  EC50: < 3 µM

## Cc1ccc(NC(=O)C[C@H](CC(C)C)c2nnc(-c3cc(CCC(C)C)on3)n2C2CC2)c(C)c1 [Example F-627]
Mouse RORγ
  EC50: < 3 µM
Human RORγ
  EC50: < 3 µM

## Cc1cc(Cl)ccc1NC(=O)C[C@H](CC(C)C)c1nnc(-c2cc(CCC(C)C)on2)n1C1CC1 [Example F-628]
Mouse RORγ
  EC50: < 3 µM
Human RORγ
  EC50: < 3 µM

## Cc1ccc(NC(=O)C[C@H](OCC(F)(F)F)c2nnc(-c3cc(CC(C)C)on3)n2C2CC2)c(C)c1 [Example F-629]
Mouse RORγ
  EC50: < 3 µM
Human RORγ
  EC50: < 3 µM

## Cc1cc(Cl)ccc1NC(=O)C[C@H](OCC(F)(F)F)c1nnc(-c2cc(CC(C)C)on2)n1C1CC1 [Example F-630]
Mouse RORγ
  EC50: < 3 µM
Human RORγ
  EC50: < 3 µM

## CC(=O)N1C[C@H](C(=O)Nc2ccc(C)cc2C)[C@@H](c2nnc(-c3cc(CC(C)(C)C)on3)n2C2CC2)C1 [Example F-631]
Mouse RORγ
  EC50: < 3 µM
Human RORγ
  EC50: < 3 µM

## CC(=O)N1C[C@H](C(=O)Nc2ccc(C)cc2C)[C@@H](c2nnc(-c3cc(CCC(C)C)on3)n2C2CC2)C1 [Example F-632]
Mouse RORγ
  EC50: < 3 µM
Human RORγ
  EC50: < 3 µM

## Cc1c(NC(=O)C[C@H](OCC(F)(F)F)c2nnc(-c3cc(CC(C)C)on3)n2C2CC2)ccc(F)c1F [Example F-633]
Mouse RORγ
  EC50: < 3 µM
Human RORγ
  EC50: < 3 µM

## Cc1c(F)ccc(NC(=O)C[C@H](OCC(F)(F)F)c2nnc(-c3cc(CC(C)C)on3)n2C2CC2)c1C [Example F-634]
Mouse RORγ
  EC50: < 3 µM
Human RORγ
  EC50: < 3 µM

## Cc1ccc(NC(=O)C[C@H](CC(C)C)c2noc(-c3cc(CC(C)C)on3)c2C2CC2)c(C)c1 [Example F-635]
Mouse RORγ
  EC50: < 3 µM
Human RORγ
  EC50: < 3 µM

## Cc1ccc(NC(=O)C[C@H](CCC(=O)NS(C)(=O)=O)c2noc([C@H]3C[C@@H](CC(C)C)C3)c2C2CC2)c(C)c1 [Example F-636]
Mouse RORγ
  EC50: < 3 µM
Human RORγ
  EC50: < 3 µM

## Cc1cc(F)ccc1NC(=O)C[C@H](CC(=O)NS(C)(=O)=O)c1noc([C@H]2C[C@@H](CC(C)C)C2)c1C1CC1 [Example F-637]
Mouse RORγ
  EC50: < 3 µM
Human RORγ
  EC50: < 3 µM

## Cc1ccc(NC(=O)C[C@H](CC#N)c2noc([C@H]3C[C@@H](CC(C)C)C3)c2C2CC2)c(C)c1 [Example F-638]
Mouse RORγ
  EC50: < 3 µM
Human RORγ
  EC50: < 3 µM

## Cc1ccc(NC(=O)C[C@H](CC(=O)NC(C)(C)C)c2noc([C@H]3C[C@@H](CC(C)C)C3)c2C2CC2)c(C)c1 [Example F-639]
Mouse RORγ
  EC50: < 3 µM
Human RORγ
  EC50: < 3 µM

## Cc1ccc(NC(=O)C[C@H](Cc2noc(=O)[nH]2)c2noc([C@H]3C[C@@H](CC(C)C)C3)c2C2CC2)c(C)c1 [Example F-640]
Mouse RORγ
  EC50: < 3 µM
Human RORγ
  EC50: < 3 µM

## Cc1ccc(NC(=O)C[C@H](Cc2nnn[nH]2)c2noc([C@H]3C[C@@H](CC(C)C)C3)c2C2CC2)c(C)c1 [Example F-641]
Mouse RORγ
  EC50: < 3 µM
Human RORγ
  EC50: < 3 µM

## Cc1ccc(NC(=O)C[C@H](CC(N)=O)c2noc([C@H]3C[C@@H](CC(C)C)C3)c2C2CC2)c(C)c1 [Example F-642]
Mouse RORγ
  EC50: < 3 µM
Human RORγ
  EC50: < 3 µM

## Cc1ccc(NC(=O)C[C@H](CCc2noc(=O)[nH]2)c2noc([C@H]3C[C@@H](CC(C)C)C3)c2C2CC2)c(C)c1 [Example F-643]
Mouse RORγ
  EC50: < 3 µM
Human RORγ
  EC50: < 3 µM

## Cc1ccc(NC(=O)C[C@H](CCc2nnn[nH]2)c2noc([C@H]3C[C@@H](CC(C)C)C3)c2C2CC2)c(C)c1 [Example F-644, (S)-3-[4-cyclopropyl-5-(3-isobutyl-cyclobutyl)-isoxazol-3-yl]-5-(1H-tetrazole-5-yl)-valeric acid (2,4-dimethyl-phenyl)-amide]
Mouse RORγ
  EC50: < 3 µM
Human RORγ
  EC50: < 3 µM

## CCOC(=O)/C=C/c1c(CCC(=O)Nc2ccc(C)cc2C)noc1[C@H]1C[C@@H](CC(C)C)C1 [Example F-645]
Mouse RORγ
  EC50: > 3 µM
Human RORγ
  EC50: > 3 µM

## Cc1ccc(NC(=O)CCc2noc([C@H]3C[C@@H](CC(C)C)C3)c2/C=C/C(=O)O)c(C)c1 [Example F-646]
Mouse RORγ
  EC50: > 3 µM
Human RORγ
  EC50: > 3 µM
